# From US11819498B2, “Methods and compositions for treating autophagy related disease states and conditions utilizing AMPK activation” (UNM RAINFOREST INNOVATIONS, priority 2019, dated 2023)
# Where a SMILES comes first, the peptide text is derived from it. The star is where a group is joined. βNA = c1ccc2cc(N*)ccc2c1
# Assays:
# AMPK = assay: Western blot of AMPK activation upon lysosomal damage by damaging agents; assay type: cell-based; conditions: HEK293T cells, time and dose dependent, Western blot (FIGS. 4SE-F)
# Description: (§1) Western blotting and co-immunoprecipitation (co-IP) were performed as described previously (Chauhan et al., 2016). For TAK1 inhibition, the cells were treated with TAK1 inhibitor (5Z-oxozeanol) 1 h prior to LLOMe treatment. For co-IP, cells were transfected with plasmids as indicated in figures and lysed in NP-40 buffer containing protease inhibitor cocktail and PMSF. Lysates were incubated with antibodies at 4° C. for 4 h followed by incubation with protein G Dynabeads for 2 h at 4° C. Beads were washed three times with PBS and boiled with SDS containing sample buffer, samples were processed for immunoblotting to analyze the interactions between immunoprecipitated proteins.
# AMPKα1 on lysosomes = assay: LysoIP lysosome purification and immunoblot; assay type: cell-based; conditions: HEK293T cells, 1 mM LLOMe 30 min, LysoIP (FIG. 6B)
# Description: Stable LysoIP cells were produced, by utilizing lentiviruses constructs from David M. Sabatini Lab (White Head Institute). HEK293T cells were transfected with pLJC5-TMEM192-3xHA or pLJC5-TMEM192-2XFLAG constructs in combination with pCMV-VSV-G and psPAX2 packaging plasmids, 60 h after transfection, the supernatant containing lentiviruses was collected and centrifuged to remove cells and then frozen at −80° C. To establish LysoIP stably expressing cell lines, HEK293T, Huh7 or Huh7 Gal9^KO cells were plated in […] in DMEM with 10% FBS and infected with 500 μL of virus-containing media overnight followed by addition of 1 μg/mL puromycin for selection. Cells were plated in 15 cm^2 culture plates and were used at 90% confluency for each LysoIP. Cells with or without 1 mM LLOMe treatment were quickly rinsed twice with PBS and then scraped in 1 mL of KPBS (136 mM KCl, 10 mM KH2PO4, pH7.25 was adjusted with KOH) and centrifuged at 3000 rpm for 2 min at 4° C. Pelleted cells were resuspended in 950 μL KPBS and reserved 25 μL for further processing of the whole-cell lysate. The remaining cells were gently homogenized with 20 strokes of a 2 mL homogenizer. The homogenate was then centrifuged at 3000 rpm for 2 min at 4° C. and the supernatant was incubated with 100 μL of KPBS prewashed anti-HA magnetic beads (ThermoFisher) on a gentle rotator shaker for 3 min. […]
# autophagy = conditions: cited studies; cited from earlier work
# ALIX puncta = ALIX puncta by high content microscopy in THP-1 cells; assay type: cell-based; conditions: 250 μM metformin 2 h or 250 μM LLOMe 1 h (FIG. 5SF)
# Description: (§2) The cells were plated in 96 well plates on day 1 and were treated on day 2, followed by fixation in 4% paraformaldehyde for 5 min. After fixation, cells were washed twice with 1×PBS and were then permeabilized with 0.1% saponin in 3% Bovine serum albumin (BSA) for 30 min. The cells were then incubated with primary antibodies O/N at 4° C. On day3, the cells were washed twice with 1×PBS and incubated with secondary antibodies for 1 h followed by 5 min incubation with Hoechst 33342. High content microscopy with automated image acquisition and quantification was carried out using a Cellomics HCS scanner and iDEV software (ThermoFisher Scientific). Automated epifluorescence image collection was performed for a minimum of 500 cells per well. Epifluorescence images were machine analyzed using preset scanning parameters and object mask definitions. Hoechst 33342 staining was used for autofocus and to automatically define cellular outlines based on background staining of the cytoplasm. Primary objects were cells, and regions of interest (ROI) or targets were algorithm-defined by shape/segmentation, maximum/minimum average intensity, total area and total intensity, etc., to automatically identify puncta or other profiles within valid primary objects. All data collection, processing (object, ROI, and target mask assignments) and analyses were computer driven independently of human operators.
# [1] = system: Gal9 complexes with AMPK and TAK1; assay: APEX2-Gal9 proximity biotinylation and co-IP after LLOMe; assay type: cell-based
# Description: as §1
# Gal9 puncta = Gal9 puncta by high content microscopy in metformin-treated cells; assay type: cell-based
# Description: as §2
# [2] = system: LysoTracker Red staining of acidified compartments such as lysosomes; assay: LysoTracker assay in THP-1 cells; assay type: cell-based; conditions: 250 μM for 2 h (FIG. 5SD)
# Description: Prepare fresh LysoTracker Staining Solution (2 μL LysoTracker in 1 mL medium). Add 10 μL LysoTracker Staining Solution to no treatment, LLOMe treated or Metformin treated THP-1 cells in 96 wells for total 100 μL per well and incubate at 37° C. for 30 min protected from light. Rinse gently by 1×PBS and fix in 4% Paraformaldehyde for 2 min. Wash once by 1×PBS and blot with Hoechst 33342 for 2 min before detecting by high content microscopy.
# LC3 puncta = LC3 puncta by high content microscopy in THP-1 cells; assay type: cell-based; conditions: 250 μM metformin 2 h, compared with LLOMe (FIG. 7A)
# Description: as §2
# ubiquitin puncta = assay: Ubiquitin puncta by high content microscopy in THP-1 cells; assay type: cell-based; conditions: 250 μM metformin 2 h compared with 250 μM LLOMe 1 h (FIG. 5SC)
# Description: as §2
# Gal8 puncta = Gal8 puncta by high content microscopy in THP-1 cells; assay type: cell-based; conditions: 250 μM for 2 h, HCM (FIG. 5SB)
# Description: as §2
# AMPKα1 = assay: Western blot of Huh7 cells treated with TAK1 inhibitor and LLOMe; assay type: cell-based; conditions: TAK1 inhibitor 1 h prior to 1 mM LLOMe 30 min
# Description: as §1
# TAK1 = assay: Western blot of HeLa cells treated with TAK1 inhibitor and LLOMe; assay type: cell-based; conditions: 1 mM LLOMe 30 min (FIG. 5C)
# Description: as §1
# LC3 = LC3 response in Huh7 and HeLa cells treated with TAK1 inhibitor and LLOMe; assay type: cell-based; conditions: with LLOMe (FIG. 5C)
# Description: as §1
smiles,measurement,setting,value
"Br.COC(=O)[C@H](CC(C)C)NC(=O)[C@@H](N)CC(C)C [LLOMe, Leu-Leu methyl ester hydrobromide]",AMPK activation upon lysosomal damage,AMPK,activated
same,AMPKα1 on purified lysosomes,AMPKα1 on lysosomes,enrichment of AMPKα1 on lysosomes
same,autophagy induction,autophagy,has been shown to induce autophagy
same,ALIX puncta response,ALIX puncta,a robust response
same,association between AMPK and Gal9,"[1]; APEX2-Gal9 proximity biotinylation, 30 min of exposure (FIG. 4SA)",increased association
same,mCherry-Gal9 association with GFP-TAK1,"[1]; HeLa Flp-In Gal9 Tet-ON cells, 30 min of treatment (FIG. 4SB)",A similar increase
"NCC(=O)N[C@@H](Cc1ccccc1)C(=O)Nc1ccc2ccccc2c1 [GPN, Gly-Phe β-naphthylamide] (H-Gly-Phe-βNA)",AMPK activation upon lysosomal damage,AMPK,activated
CN(C)C(=N)N=C(N)N [metformin],response of Huh7 or 293T cells to metformin,Gal9 puncta; Huh7 or 293T cells,did not respond
same,"lysosomal damage response, Gal9 puncta formation","Gal9 puncta; THP-1 cells, 250 μM for 2 h, HCM (FIG. 5SB)",lysosomal damage response by detecting Gal9 puncta formation
same,LysoTracker Red staining,[2],a decrease in staining
same,LC3 response (average area of LC3 puncta per cell),LC3 puncta,a similar LC3 response
same,ubiquitination response (ubiquitin puncta),ubiquitin puncta,a ubiquitination response albeit of a lesser magnitude than when applying an overt lysosomal damaging agent LLOMe
same,ALIX puncta response,ALIX puncta,a milder but significant response
same,puncta stained for Gal8,Gal8 puncta,an increase in puncta stained for Gal8
"COc1cc(O)c2c(c1)/C=C/C[C@H](O)[C@H](O)C(=O)/C=C\C[C@H](C)OC2=O [5ZO, (5-Z)-7-oxozeaenol]",AMPKα1 activation upon lysosomal damage,AMPKα1,prevented AMPKα1 activation
same,TAK1 activation with LLOMe,TAK1,suppressed TAK1 activation
same,phosphorylation of AMPK substrate ACC (pS79),TAK1,inhibition of phosphorylation
same,phosphorylation of AMPKα1 (pT172),TAK1,inhibition of phosphorylation
same,LC3 response,LC3,reduced the LC3 response
